pIC50: −log10 of the molar value. Activity calls are given as the source filed them. No cut-off for these calls is given here.
Tests used:
HepG2 [1] = test: Cytotoxicity against human HepG2 cells assessed as growth inhibition after 72 hrs by MTT assay; type: functional, cell-based; conditions: HepG2, 72 h
HepG2 [2] = test: Inhibition of vacuolar H+-ATPase in human HepG2 cells assessed as release of phosphate after 72 hrs by malachite green dye-based spectrophotometric analysis; type: cell-based
MCF7 = test: Cytotoxicity against human MCF7 cells assessed as growth inhibition after 72 hrs by MTT assay; type: functional, cell-based; conditions: MCF7, 72 h
HeLa = test: Cytotoxicity against human HeLa cells assessed as growth inhibition after 72 hrs by MTT assay; type: functional, cell-based
HCT-116 = test: Cytotoxicity against human HCT116 cells assessed as growth inhibition after 72 hrs by MTT assay; type: functional, cell-based; conditions: HCT-116, 72 h
U-251 = test: Cytotoxicity against human U251 cells assessed as growth inhibition after 72 hrs by MTT assay; type: functional, cell-based; conditions: U-251, 72 h
HepG2 [3] = test: Inhibition of vacuolar H+-ATPase in human HepG2 cells assessed as neutralization of lysosomal pH at 10 to 100 nM after 48 hrs by LysoTracker Red dye-based confocal microscopic analysis; type: cell-based

Row | Structure (SMILES) | pIC50 (HepG2 [1]) | inhibition (HepG2 [2]) | pIC50 (MCF7) | pIC50 (HeLa) | pIC50 (HCT-116) | pIC50 (U-251) | inhibition (HepG2 [3])
1 | COc1cc2c(O[C@@H]3OC[C@@H](OC)[C@H](OC)[C@H]3O)c3c(c(-c4ccc5c(c4)OCO5)c2cc1OC)C(=O)OC3 [CLEISTANTHIN] | 7.44 | Dose-dependent effect | 6.72 | 7.17 | 7.51 | 7.01 | Active
2 | COc1cc2c(O[C@@H]3OC[C@@H](OC)[C@H](OC)[C@H]3O[C@@H]3O[C@H](CO)[C@@H](O)[C@H](O)[C@H]3O)c3c(c(-c4ccc5c(c4)OCO5)c2cc1OC)C(=O)OC3 | < 6.70 |  | < 6.70 | < 6.70 | < 6.70 | < 6.70 | 
3 | COc1cc2c(O[C@@H]3OC[C@@H](OC)[C@H](OC)[C@H]3O[C@@H]3O[C@H](COC(C)=O)[C@@H](OC(C)=O)[C@H](OC(C)=O)[C@H]3OC(C)=O)c3c(c(-c4ccc5c(c4)OCO5)c2cc1OC)C(=O)OC3 | 7.41 | Dose-dependent effect | 7.04 | 7.13 | 7.09 | 7.00 | Active
4 | CC(=O)O[C@H]1C(=O)[C@@]2(C)[C@H]([C@H](OC(=O)c3ccccc3)[C@]3(O)C[C@H](OC(=O)[C@H](O)[C@@H](NC(=O)c4ccccc4)c4ccccc4)C(C)=C1C3(C)C)[C@]1(OC(C)=O)CO[C@@H]1C[C@@H]2O [PACLITAXEL] | 7.08 |  | 7.35 | 7.02 | 7.16 | 6.89 | 
